In patent publication US12559494B2, “Functionalized lactams as modulators of the 5-hydroxytryptamine receptor 7 and their method of use” (Temple University - Of The Commonwealth System of Higher …, priority 2018, dated 2026):
Like-named read-outs stand apart in the source and are kept apart here.

Target: 5HT7 receptors (Homo sapiens, UniProt P34969)
Assay: Functional data (Kb), HitHunter cAMP enzyme fragment complementation assay with 5-HT as agonist
Format: cell-based
Design: expressed in transfected cells; G418 selection)
Experimental: Functional efficacy of the compounds of the disclosure on 5-HT7 serotonin receptors were measured in a cell based cAMP enzyme fragment complementation assay using the HitHunter cAMP assay (DiscoveRx). Cells stably expressing human 5HT7 receptors were plated in 96-well plates at 4000 cells/well, 16-20 hours prior to assay in growth media (Ultraculture medium, 2 mM GlutaMax and G418 1 mg/mL. Serial dilutions of the agonist, 5-hydroxytryptamine (5-HT), were prepared in a final concentration range of 10 μM to 10 nM. Compounds of the disclosure were prepared in 3-fold serial dilutions to obtain a final concentration range of 10 μM to 0.1 nM. Compounds of the disclosure are tested for agonist activity in the absence of 5-HT and antagonist activity in the presence of 5-HT. For the cAMP assay, the protocol was followed according to the instructions provided by the supplier. Briefly, cells were incubated with a compound of the disclosure for 30 minutes at 37° C. prior to addition of EC70 concentration of 5-HT. After an additional 30 minutes, cAMP antibody/cell lysis solution was added (20 μL/well) and incubated for 60 minutes at room temperature. cAMP XS+EA reagent is added (20 μL/well) and incubated for 2 hours at room temperature. Luminescence was read on the Envision Multilabel plate reader.

[1] = Table 35, scaffold drawing 615, antagonist mode vs 5-HT, read-out: Kb
[2] = Table 36, scaffold drawing 616, antagonist mode vs 5-HT, read-out: Kb
[3] = Table 37, scaffold drawing 617, antagonist mode vs 5-HT, read-out: Kb

5HT7 receptors, sequence (P34969 whole entry, the tested form may be a part): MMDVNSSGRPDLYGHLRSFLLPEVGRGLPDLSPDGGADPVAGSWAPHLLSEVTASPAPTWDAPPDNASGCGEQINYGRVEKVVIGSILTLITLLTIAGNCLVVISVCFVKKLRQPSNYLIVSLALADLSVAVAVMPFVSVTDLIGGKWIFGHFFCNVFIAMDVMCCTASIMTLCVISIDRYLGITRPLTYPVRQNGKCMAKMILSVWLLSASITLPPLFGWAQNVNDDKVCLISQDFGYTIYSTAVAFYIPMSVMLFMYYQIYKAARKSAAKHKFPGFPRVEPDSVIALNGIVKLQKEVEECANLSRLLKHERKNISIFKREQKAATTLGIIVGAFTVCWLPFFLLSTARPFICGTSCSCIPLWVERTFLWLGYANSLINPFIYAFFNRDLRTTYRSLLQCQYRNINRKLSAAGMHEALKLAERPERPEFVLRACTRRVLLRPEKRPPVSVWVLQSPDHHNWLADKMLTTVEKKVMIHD

Kb [1] | SMILES | further results
230 nM | CCC1(CC)C[C@H](CCN2CCN(c3ccccc3OC)CC2)NC1=O [(R)-3,3-diethyl-5-(2-(4-(2-methoxyphenyl)piperazin-1-yl)ethyl)pyrrolidin-2-one] | –
137 nM | CCC1(CC)C[C@H](CCN2CCN(c3ccc(C(F)(F)F)cc3)CC2)NC1=O [(R)-3,3-diethyl-5-(2-(4-(4-(trifluoromethyl)phenyl)piperazin-1-yl)ethyl)pyrrolidin-2-one] | –
4.91 nM | CCC1(CC)C[C@H](CCN2CCN(c3ccccn3)CC2)NC1=O [(R)-3,3-diethyl-5-(2-(4-(pyridin-2-yl)piperazin-1-yl)ethyl)pyrrolidin-2-one] | –
544 nM | CCC1(CC)C[C@H](CCN2CCN(c3ccc(C#N)cc3)CC2)NC1=O [(R)-4-(4-(2-(4,4-diethyl-5-oxopyrrolidin-2-yl)ethyl)piperazin-1-yl)benzonitrile] | –
109 nM | CCC1(CC)C[C@H](CCN2CCN(c3ccccc3Cl)CC2)NC1=O [(R)-5-(2-(4-(2-chlorophenyl)piperazin-1-yl)ethyl)-3,3-diethylpyrrolidin-2-one] | –
127 nM | CCC1(CC)C[C@H](CCN2CCN(c3ccccc3C)CC2)NC1=O [(R)-5-(2-(4-(2-methylphenyl)piperazin-1-yl)ethyl)-3,3-diethylpyrrolidin-2-one] | –
9.89 nM | CCC1(CC)C[C@H](CCN2CCN(c3cccc(F)c3)CC2)NC1=O [(R)-5-(2-(4-(3-fluorophenyl)piperazin-1-yl)ethyl)-3,3-diethylpyrrolidin-2-one] | –
1.65 nM | CCC1(CC)C[C@H](CCN2CCN(c3cccc(C)c3)CC2)NC1=O [(R)-5-(2-(4-(3-methylphenyl)piperazin-1-yl)ethyl)-3,3-diethylpyrrolidin-2-one] | –
– | O=C1N[C@H](CCN2CCN(c3cccc(Cl)c3)CC2)CC12CC=CC2 [(S)-3-(2-(4-(3-chlorophenyl)piperazin-1-yl)ethyl)-2-azaspiro[4.4]non-7-en-1-one] | Kb [2]: 36.3 nM
– | O=C1N[C@H](CCN2CCN(c3cccc(Cl)c3)CC2)CC12CCCC2 [(S)-3-(2-(4-(3-chlorophenyl)piperazin-1-yl)ethyl)-2-azaspiro[4.4]nonan-1-one] | Kb [2]: 48.4 nM
– | O=C1N[C@H](CCN2CCN(c3ccc(F)cc3)CC2)CC12CC=CC2 [(S)-3-(2-(4-(4-fluorophenyl)piperazin-1-yl)ethyl)-2-azaspiro[4.4]non-7-en-1-one] | Kb [2]: 46.2 nM
– | O=C1N[C@H](CCN2CCN(c3ccc(F)cc3)CC2)CC12CCCC2 [(S)-3-(2-(4-(4-fluorophenyl)piperazin-1-yl)ethyl)-2-azaspiro[4.4]nonan-1-one] | Kb [2]: 52.6 nM
6.59 nM | CCC1(CC)C[C@H](CCN2CCN(c3ccccc3)CC2)NC1=O [drawing 615 n=2 R1=Ethyl R2=Ethyl R3=Phenyl, (R)-3,3-diethyl-5-(2-(4-phenylpiperazin-1-yl)ethyl)pyrrolidin-2-one] | –
– | CS(=O)(=O)N1CCC2(CC1)C[C@H](CCCN1CCN(c3cccc(Cl)c3)CC1)NC2=O [drawing 617 n=3 R3=3-Cl-Phenyl R7=MeSO2, (S)-3-(3-(4-(3-chlorophenyl)piperazin-1-yl)propyl)-8-(methylsulfonyl)-2,8-diazaspiro[4.5]decan-1-one] | Kb [3]: 321 nM
– | CS(=O)(=O)N1CCC2(CC1)C[C@H](CCCN1CCN(c3ccc(F)cc3)CC1)NC2=O [drawing 617 n=3 R3=4-F-Phenyl R7=MeSO2, (S)-3-(3-(4-(4-fluorophenyl)piperazin-1-yl)propyl)-8-(methylsulfonyl)-2,8-diazaspiro[4.5]decan-1-one] | Kb [3]: 526 nM
– | CS(=O)(=O)N1CCC2(CC1)C[C@@H](CCN1CCN(c3ccc(F)cc3)CC1)NC2=O [drawing 618; n=2; R3=4-F-Phenyl; R7=MeSO2, (S)-3-(2-(4-(4-fluorophenyl)piperazin-1-yl)ethyl)-8-(methylsulfonyl)-2,8-diazaspiro[4.5]decan-1-one] | Kb (cAMP assay, cells stably expressing human 5HT7 receptors, antagonist activity in the presence of EC70 5-HT, read-out: Kb (nM)^2): 74.2 nM
